Data on one compound can be found in patent EP0569598A1, “BENZOXAZINONE DERIVATIVE” (JAPAN TOBACCO INC., priority 1991, dated 1993).

Assay [1] deals with Neutrophile Infiltration of Carrageenin-induced Air Pouch inflammation. Kind of assay: Suppression of neutrophile infiltration in carrageenin-induced air pouch inflammation. In kind it is in vivo, rat. The conditions noted are these: Dose 10.9 µmol into the air pouch immediately after carrageenin, exudate cells five hours later, SD female rats. How it is done: SD female rats in 5 weeks old, having the weight in the range of 110 to 130g were used. A group was regarded to have 5 rats. In the first step, an air pouch was formed by a hypodermic injection of 8 ml of air on the back of a rat under ether anesthesia. Twenty four hours later, to the air pouch was added 5 ml of a saline containing 1% carrageenin (Wako Co., Ltd.). A test compound of the present invention, which has been dissolved in 200 µl DMSO (dimethylsulfoxide), was administered in the air pouch immediately after the carrageenin injection.
Five hours later, the rat was killed and the blood was released. Then, 5 ml of PBS containing EDTA (ethylenediamine tetraacetate) was injected in the air pouch. The exudate in the air pouch was washed and collected. An aliquot of the exudate was measured by a colter counter and determined the number of cells in the collected exudate.
The value subtracting migrating cell number in an experiment performed without carrageenin injection from the migrating cell number in a control experiment administering no the compound of the present invention was regarded as 100, the chemotaxis suppressing activity was determined as the following formula: Cell Infiltration Suppressing Activity (%) [formula] = 100 - S/T x 100 [formula] = 100 - (U - V )/(W - V) x 100 [formula] […]

Assay [2] concerns the target T1, human cathepsin G (HCG) (Homo sapiens, UniProt P08311).
T1 construct: purchased Cosmo Bio Inc
T1 sequence (P08311 21-244): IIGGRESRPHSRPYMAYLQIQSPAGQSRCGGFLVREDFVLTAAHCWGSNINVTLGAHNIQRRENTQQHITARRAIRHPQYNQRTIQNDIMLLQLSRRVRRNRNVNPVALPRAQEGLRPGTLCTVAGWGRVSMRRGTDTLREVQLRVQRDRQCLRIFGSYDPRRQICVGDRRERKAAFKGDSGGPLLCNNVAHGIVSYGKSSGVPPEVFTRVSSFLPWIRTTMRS
Kind of assay: HCG inhibitory activity (synthetic substrate, pNA release). In kind it is biochemical. The note with it: pH 7.5; HCG 50 nM, substrate 0.5 mM; read-out: IC₅₀ value HCG. How it is done:
(§1) Activities of the Benzoxazine derivatives of the present invention against human leukocyte elastase (HLE), human sputum elastase (HSE), human cathepsin G (HCG), bovine pancreatic α-chmotrypsin (CYT) and bovine pancreatic trypsin (TRY) were measured by the following method.
(§2) A test compound was dissolved in DMSO (for fluorometry) and prepared various concentration of the solution. To each concentration was added 2-fold volume of 0.2M Tris-HCl (pH8.6), thereby obtaining a test solution. Synthetic substrate (Funakoshi, L-1335) was dissolved in DMSO and 2-volume of 0.2M Tris-HCl (pH8.6) was added thereto, thereby obtaining a substrate solution. The reaction was performed using a microplate having 96 wells (Nunk). Six-time reactions were repeated for each concentration. One handred and forty µl of an enzyme solution containing 0.2M Tris-HCl (pH8.6), 30 µl of a test solution and 30 µl of a substrate solution per well of the microplate were respectively pre-incubated at 37°C for 10 minutes. After completion of the incubation, the enzyme solution was mixed with the test sample and incubated for 10 minutes and then the substrate solution was added to perform an enzyme reaction. The absorbance of released P-nitroanilide (PNA) was measured at the wave length of 405 nm by means of a microplate reader (MTP-100; CORONA), thereby determining the substrate decomposition. The rate of the substrate decomposition was shown as an average value of 6 repeated reactions. The inhibitory concentration of a test compound relative to the amount of the substrate decomposition in the reaction mixture without a test compound was regarded as an IC₅₀ value. The final concentration of HLE and a synthesized substrate in the reaction mixture were 5.63 nM and 0.2625 mM, respectively.
a) Enzyme obtaining route HCG was obtained from Cosmo Bio Inc.
The same method as in the measurement of HLE inhibitory activity was used except that a buffer solution (pH 7.5) was used. The final concentration of HCG and synthetic substrate (Funakoshi, L-1010) in a reaction mixture were 50 nM and 0.5 mM, respectively.

For assay [3], the target named is T2, human leukocyte elastase (HLE) (Homo sapiens, UniProt P08246).
T2 construct: the mixed solution was subjected to density gradient centrifugation, thereby obtaining neutrophiles; from tissue; host or cells: neutrophils from human vein blood (buffy coat)
T2 sequence (P08246 30-247 limits assumed): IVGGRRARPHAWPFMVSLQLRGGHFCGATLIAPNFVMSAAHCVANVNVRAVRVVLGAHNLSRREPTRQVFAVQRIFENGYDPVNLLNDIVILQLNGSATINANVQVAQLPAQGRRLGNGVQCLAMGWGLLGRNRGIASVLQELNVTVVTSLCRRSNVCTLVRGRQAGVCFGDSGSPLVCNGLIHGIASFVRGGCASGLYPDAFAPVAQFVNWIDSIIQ
Kind of assay: HLE inhibitory activity (synthetic substrate, pNA release, absorbance 405 nm). In kind it is biochemical. The conditions noted are these: pH 8.6; HLE 5.63 nM, substrate 0.2625 mM; 37°C; read-out: IC₅₀ value HLE. The method, then: as §1
A buffy coat was obtained by subjecting human vein blood to centrifugation. To the buffy coat was added distilled water to make a hypotonic solution, thereby bursting erythrocytes. To the residual blood cell component was added a 33.4% of Conrey 400 solution/9% Ficoll solution (the ratio of the former solution to the latter solution is 10:24), and the mixed solution was subjected to density gradient centrifugation, thereby obtaining neutrophiles. The neutrophile fraction was washed with Hanks' buffer for three times and then cells were recovered and cryopreserved at -80°C until use. The cryopreserved-cells were thawed with warm water at 37°C and suspended in a 9-fold volume of lysis buffer containing 0.1M Tris-HCl (pH7.5), 1M MgCl₂ and 0.1% Brij 35. The suspended cells are destroyed by means of polotoron with ice-cooling. The cell suspension was subjected to centrifugation at 100,000 x g for 1 hour. After removing precipitates, 2-fold volume of a Tris-HCl buffer containing 5 mM Tris-HCl(pH 7.5), 1M NaCl and 1.1% Brij 35 was added to the supernatant, thereby obtaining a crude solution of an enzyme extract. The crude solution was subjected to aprotinine affinity column and extracted with an elution buffer containing […] of glycine-HCl (pH 3.3), 1M NaCl and 0.1% Brij 35, thereby obtaining an active fraction. The obtained active fraction was further subjected to MONO S-ion-exchange chromatography and eluted with 2M NaCl linear gradient. The obtained fraction was dialyzed against 25 mM Tris-HCl (pH8.6) and lyophilized, thereby obtained an enzyme sample.
as §2

In assay [4] the target is T3, bovine pancreatic α-chmotrypsin (CYT) (Bos taurus, UniProt P00766).
T3 construct: bovine pancreatic α-chmotrypsin (CYT); purchased Sigma Co., Ltd
Kind of assay: CYT inhibitory activity (synthetic substrate, pNA release). The conditions noted are these: pH 8.0; CYT 3.4 nM, substrate 0.273 mM; read-out: IC₅₀ value CYT. The class given is biochemical. The method, then:
as §1, §2
a) Enzyme obtaining route CYT was obtained from Sigma Co., Ltd.
Substantially the same method as used in the measurement of the HLE inhibitory activity was used except that a buffer solution (pH 8.0) was used. The final concentration of CYT and synthetic substrate (Funakoshi, L-1010) in a reaction mixture were 3.4 nM and 0.273 mM, respectively.

`Cc1cccc2nc([C@@H](NC(=O)COC(c3ccccc3)c3ccccn3)C(C)C)oc(=O)c12` (mixture of isomers) [Compound 3, 5-methyl-2-[2-methyl-1(S)-[[[(±)-α-(2-pyridyl)benzyloxy]acetyl]amino]propyl]-4H-3,1-benzoxazin-4-one]: the “Rate (%) of Suppressing Cell Infietration” value in assay [1] stood at 33.9%. Further, the “Cell Infiltration” value in assay [1] (control regarded as 100) was 66.1. Further, the IC50 in assay [2] was found to be 58300 nM; in assay [3], 340 nM; in assay [4], 2080 nM.
